Source: patent US9878986B2, “Compounds for selective histone deacetylase inhibitors, and pharmaceutical composition comprising the same” (CHONG KUN DANG PHARMACEUTICAL CORP., priority 2013, dated 2018)

Key:
HDAC1 = HDAC1 (Homo sapiens, UniProt Q13547); experiment: Test of HDAC activities, HDAC1 Fluorimetric Drug Discovery Assay Kit; format: biochemical; set-up: purchased Enzolifesciences BML-AK511; conditions: samples at 100, 1000, 10000 nM; 37° C. 60 minutes; fluorescence Ex 390, Em 460; read-out: HDAC inhibitory activities, HDAC1
Chain of HDAC1 (Q13547 whole entry): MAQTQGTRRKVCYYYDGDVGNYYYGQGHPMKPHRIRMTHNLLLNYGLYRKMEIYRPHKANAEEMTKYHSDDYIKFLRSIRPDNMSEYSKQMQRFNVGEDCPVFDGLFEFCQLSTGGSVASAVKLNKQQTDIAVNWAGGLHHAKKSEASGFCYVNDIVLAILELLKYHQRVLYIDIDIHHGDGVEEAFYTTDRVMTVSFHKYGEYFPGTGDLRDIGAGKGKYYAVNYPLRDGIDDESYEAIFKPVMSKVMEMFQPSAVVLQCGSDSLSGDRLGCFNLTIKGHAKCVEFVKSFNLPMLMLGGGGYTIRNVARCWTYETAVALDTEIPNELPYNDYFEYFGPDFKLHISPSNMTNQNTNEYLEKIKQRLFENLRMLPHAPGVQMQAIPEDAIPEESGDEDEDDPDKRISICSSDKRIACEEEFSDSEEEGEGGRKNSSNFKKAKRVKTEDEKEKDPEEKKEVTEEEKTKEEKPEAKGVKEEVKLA
Procedure: (§1) The HDAC inhibitory activities of test materials were measured using the HDAC1 Fluorimetric Drug Discovery Assay Kit (Enzolifesciences: BML-AK511) and HDAC6 human recombinant (Calbiochem: 382180). In the HDAC1 assay, the samples were treated with concentrations of 100, 1000, and 10000 nM, and in the HDAC6 assay, the samples were treated with concentrations of 0.1, 1, 10, 100, and 1000 nM. After the treatment of the samples, the samples were reacted at 37° C. for 60 minutes, treated with a developer, and then reacted at 37° C. for 30 minutes. Then, the fluorescence intensity (Ex 390, Em 460) was measured using the FlexStation 3 (Molecular device).

HDAC 6 = target: T1, HDAC 6 (Homo sapiens, UniProt Q9UBN7); experiment: Test of HDAC activities, HDAC6 (fluorimetric); format: biochemical; set-up: purchased Calbiochem 382180; conditions: samples at 0.1, 1, 10, 100, 1000 nM; 37° C. 60 minutes; fluorescence Ex 390, Em 460; read-out: HDAC inhibitory activities, HDAC6
T1 sequence (Q9UBN7 1-1215): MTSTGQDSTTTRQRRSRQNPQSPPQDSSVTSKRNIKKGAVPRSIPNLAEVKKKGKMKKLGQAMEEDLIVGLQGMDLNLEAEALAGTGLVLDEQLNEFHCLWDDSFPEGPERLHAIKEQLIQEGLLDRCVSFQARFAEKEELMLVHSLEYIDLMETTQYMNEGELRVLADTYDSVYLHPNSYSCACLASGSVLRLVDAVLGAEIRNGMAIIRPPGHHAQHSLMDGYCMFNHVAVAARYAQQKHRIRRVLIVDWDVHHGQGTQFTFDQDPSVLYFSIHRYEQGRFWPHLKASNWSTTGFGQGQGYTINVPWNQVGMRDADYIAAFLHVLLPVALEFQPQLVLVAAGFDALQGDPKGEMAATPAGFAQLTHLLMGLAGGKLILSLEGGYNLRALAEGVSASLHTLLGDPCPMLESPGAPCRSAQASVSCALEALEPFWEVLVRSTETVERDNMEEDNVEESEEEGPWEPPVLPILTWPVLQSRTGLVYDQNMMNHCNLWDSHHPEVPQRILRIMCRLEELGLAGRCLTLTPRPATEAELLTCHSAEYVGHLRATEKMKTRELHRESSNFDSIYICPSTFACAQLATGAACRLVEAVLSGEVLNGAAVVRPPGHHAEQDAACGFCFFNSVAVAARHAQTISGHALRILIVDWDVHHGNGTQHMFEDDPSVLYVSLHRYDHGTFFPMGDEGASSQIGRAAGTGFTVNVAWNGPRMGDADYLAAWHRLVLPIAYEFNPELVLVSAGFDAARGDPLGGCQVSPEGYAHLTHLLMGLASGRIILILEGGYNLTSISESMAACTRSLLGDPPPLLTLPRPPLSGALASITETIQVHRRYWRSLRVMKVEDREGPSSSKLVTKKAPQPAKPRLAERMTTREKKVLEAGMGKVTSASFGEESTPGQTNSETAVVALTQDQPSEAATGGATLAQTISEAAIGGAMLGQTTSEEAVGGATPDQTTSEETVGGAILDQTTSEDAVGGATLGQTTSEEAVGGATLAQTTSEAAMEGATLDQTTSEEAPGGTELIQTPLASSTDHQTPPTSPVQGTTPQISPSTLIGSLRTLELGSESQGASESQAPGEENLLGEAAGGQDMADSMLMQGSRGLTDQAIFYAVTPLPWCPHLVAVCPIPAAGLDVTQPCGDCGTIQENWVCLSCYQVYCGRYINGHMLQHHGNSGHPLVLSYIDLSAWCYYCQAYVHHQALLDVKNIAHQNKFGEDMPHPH
Procedure: as §1

SMILES | IC50 (HDAC1) | IC50 (HDAC 6)
CC1CN(C(=O)N(Cc2ccc(C(=O)NO)cc2)c2ccccc2OC(F)(F)F)CC(C)O1 (centres unmarked) [Compound 801, N-(4-(hydroxycarbamoyl)benzyl)-2,6-dimethyl-N-(2-(trifluoromethoxy)phenyl)morpholine-4-carboxamide] | 14900 nM | 59.7 nM
O=C(NO)c1ccc(CN(C(=O)N2CCN(Cc3ccccc3)CC2)c2ccccn2)cc1 [Compound 355, 4-benzyl-N-(4-(hydroxycarbamoyl)benzyl)-N-(pyridin-2-yl)piperazine-1-carboxamide] | 2340 nM | 5 nM
O=C(NO)c1ccc(CN(C(=O)N2CCOCC2)c2cccc(-c3cc(F)cc(F)c3)c2)cc1 [Compound 395, N-(3′,5′-difluorobiphenyl-3-yl)-N-(4-(hydroxycarbamoyl)benzyl)morpholine-4-carboxamide] | 489 nM | 5 nM
CC1CN(C(=O)N(Cc2ccc(C(=O)NO)cc2)c2cccc(-c3ccc4c(c3)OCO4)c2)CC(C)O1 (centres unmarked) [Compound 464, N-(3-(benzo[d][1,3]dioxol-5-yl)phenyl)-N-(4-(hydroxycarbamoyl)benzyl)-2,6-dimethylmorpholine-4-carboxamide] | 1170 nM | 10 nM
O=C(NO)c1ccc(CN(C(=O)N2CCOCC2)c2cccc(-c3cc(C(F)(F)F)cc(C(F)(F)F)c3)c2)cc1 [Compound 398, N-(3′,5′-bis(trifluoromethyl)biphenyl-3-yl)-N-(4-(hydroxycarbamoyl)benzyl)morpholine-4-carboxamide] | 4450 nM | 32 nM
O=C(NO)c1ccc(CN(C(=O)N2CCOCC2)c2cccnc2)cc1 [Compound 281, N-(4-(hydroxycarbamoyl)benzyl)-N-(pyridin-3-yl)morpholine-4-carboxamide] | 3910 nM | 27 nM
O=C(NO)c1ccc(CN(C(=O)N2CCC[C@H]2CO)c2cccc(-c3ccc4c(c3)OCO4)c2)cc1 [Compound 469, (S)—N-(3-(benzo[d][1,3]dioxol-5-yl)phenyl)-N-(4-(hydroxycarbamoyl)benzyl)-2-(hydroxymethyl)pyrrolidine-1-carboxamide] | 5340 nM | 12 nM
O=C(NO)c1ccc(CN(C(=O)N2CCC(O)(c3ccccc3)CC2)c2ccc(C(F)(F)F)cc2)cc1 [Compound 486, 4-hydroxy-N-(4-(hydroxycarbamoyl)benzyl)-4-phenyl-N-(4-(trifluoromethyl)phenyl)piperidine-1-carboxamide] | 1450 nM | 6 nM
O=C(NO)c1ccc(CN(C(=O)N2CCC(O)CC2)c2cccc(Br)c2)c(F)c1 [Compound 488, N-(3-bromophenyl)-N-(2-fluoro-4-(hydroxycarbamoyl)benzyl)-4-hydroxypiperidine-1-carboxamide] | 1170 nM | 0.5 nM
O=C(NO)c1ccc(CN(C(=O)N2CC[C@H](F)C2)c2cccc(C(F)(F)F)n2)cc1 [Compound 829, (S)-3-fluoro-N-(4-(hydroxycarbamoyl)benzyl)-N-(6-(trifluoromethyl)pyridin-2-yl)pyrrolidine-1-carboxamide] | 1600 nM | 8.2 nM
O=C(NO)c1ccc(CN(C(=O)N2CCN(c3ccccc3)CC2)c2cccc(C(F)(F)F)c2)cc1 [Compound 717, N-(4-(hydroxycarbamoyl)benzyl)-4-phenyl-N-(3-(trifluoromethyl)phenyl)piperazine-1-carboxamide] | 2370 nM | 24 nM
O=C(NO)c1ccc(CN(C(=O)N2CC[C@@H](F)C2)c2ccc(C(F)(F)F)cc2)cc1 [Compound 520, (R)-3-fluoro-N-(4-(hydroxycarbamoyl)benzyl)-N-(4-(trifluoromethyl)phenyl)pyrrolidine-1-carboxamide] | 1170 nM | 36 nM
O=C(NO)c1ccc(CN(C(=O)N2CCN(C(c3ccccc3)c3ccccc3)CC2)c2cccc(C(F)(F)F)c2)cc1 [Compound 718, 4-benzhydryl-N-(4-(hydroxycarbamoyl)benzyl)-N-(3-(trifluoromethyl)phenyl)piperazine-1-carboxamide] | 8540 nM | 405 nM
O=C(NO)c1ccc(CN(C(=O)N2CCCC2)c2cccc(-c3ccc4c(c3)OCO4)c2)cc1 [Compound 468, N-(3-(benzo[d][1,3]dioxol-5-yl)phenyl)-N-(4-(hydroxycarbamoyl)benzyl)pyrrolidine-1-carboxamide] | 12300 nM | 10 nM
O=C(NO)c1ccc(CN(C(=O)N2CCOCC2)c2cccc(C3=CCOCC3)c2)cc1 [Compound 403, N-(3-(3,6-dihydro-2H-pyran-4-yl)phenyl)-N-(4-(hydroxycarbamoyl)benzyl)morpholine-4-carboxamide] | 453 nM | 1 nM

Results, then the compound that gave them:

IC50 (HDAC1) | IC50 (HDAC 6) | SMILES
692 nM | 1 nM | CC(=O)N1CCN(C(=O)N(Cc2ccc(C(=O)NO)cc2)c2cccc(C(F)(F)F)c2)CC1 [Compound 494, 4-acetyl-N-(4-(hydroxycarbamoyl)benzyl)-N-(3-(trifluoromethyl)phenyl)piperazine-1-carboxamide]
433 nM | 1.8 nM | CCN1CCN(C(=O)N(Cc2ccc(C(=O)NO)cc2)c2cccc(CF)c2)CC1 [Compound 765, 4-ethyl-N-(3-(fluoromethyl)phenyl)-N-(4-(hydroxycarbamoyl)benzyl)piperazine-1-carboxamide]
1740 nM | 4 nM | Cc1ccc(N(Cc2ccc(C(=O)NO)cc2)C(=O)N2CCCCC2)c(F)c1 [Compound 438, N-(2-fluoro-4-methylphenyl)-N-(4-(hydroxycarbamoyl)benzyl)piperidine-1-carboxamide]
292 nM | 1 nM | O=C(NO)c1ccc(CN(C(=O)N2CCOCC2)c2ccccc2)cc1 [Compound 279, N-(4-(hydroxycarbamoyl)benzyl)-N-phenylmorpholine-4-carboxamide]
12300 nM | 119 nM | COc1ccc(C(F)(F)F)cc1N(Cc1ccc(C(=O)NO)cc1)C(=O)N1CCOCC1 [Compound 774, N-(4-(hydroxycarbamoyl)benzyl)-N-(2-methoxy-5-(trifluoromethyl)phenyl)morpholine-4-carboxamide]
1000 nM | 3 nM | O=C(NO)c1ccc(CN(C(=O)N2CCOCC2)c2cccc(CF)c2)cc1 [Compound 500, N-(3-(fluoromethyl)phenyl)-N-(4-(hydroxycarbamoyl)benzyl)morpholine-4-carboxamide]
1980 nM | 31.5 nM | O=C(NO)c1ccc(CN(C(=O)N2CCOCC2)c2cc(C(F)(F)F)ccc2Cl)cc1 [Compound 776, N-(2-chloro-5-(trifluoromethyl)phenyl)-N-(4-(hydroxycarbamoyl)benzyl)morpholine-4-carboxamide]
148 nM | 1 nM | CN1CCN(C(=O)N(Cc2ccc(C(=O)NO)cc2)c2cccc(Br)c2)CC1 [Compound 256, N-(3-bromophenyl)-N-(4-(hydroxycarbamoyl)benzyl)-4-methylpiperazine-1-carboxamide]
447 nM | 2 nM | Cc1ccc(N(Cc2ccc(C(=O)NO)cc2)C(=O)N2CCN(C)CC2)c(F)c1 [Compound 441, N-(2-fluoro-4-methylphenyl)-N-(4-(hydroxycarbamoyl)benzyl)-4-methylpiperazine-1-carboxamide]
1820 nM | 5.1 nM | CC(C)(F)CN1CCN(C(=O)N(Cc2ccc(C(=O)NO)cc2)c2cccc(C(F)(F)F)c2)CC1 [Compound 531, 4-(2-fluoro-2-methylpropyl)-N-(4-(hydroxycarbamoyl)benzyl)-N-(3-(trifluoromethyl)phenyl)piperazine-1-carboxamide]
